Data reported in patent publication US20260124182A1, “NITAZOXANIDE FOR THE TREATMENT OF HEPATIC IMPAIRMENT” (GENFIT, priority 2022, published 2026).

Columns and labels:
[1] = Open-label multiple-dose PK, safety and tolerability study of NTZ 500 mg BID for 7 days in subjects with moderate or severe hepatic impairment vs normal hepatic function; details: for Cmax: Cmax GM; for AUC0-12 GM Ratio (Impaired/Control) / AUC0-t GM Ratio (Impaired/Control) / Cmax GM Ratio (Impaired/Control): steady state; for correlation coefficient AUC0-12 vs ALT / correlation coefficient AUC0-12 vs AST / correlation coefficient AUC0-12 vs Albumin / correlation coefficient AUC0-12 vs Bilirubin / correlation coefficient AUC0-12 vs INR / correlation coefficient Cmax vs ALT / correlation coefficient Cmax vs AST / correlation coefficient Cmax vs Albumin / correlation coefficient Cmax vs Bilirubin / correlation coefficient Cmax vs INR: highest among Pearson (P) and Spearman (S), natural (NS) and log (LS) scales, marker at screening
Description: The study design was an open-label, nonrandomized, 2-center, multiple-dose, parallel-group study to evaluate the PK as well as the safety and tolerability of NTZ 500 mg BID administration for 7 days in males and females patients with moderate and severe hepatic impairment as compared to matched control healthy males and females patients with normal hepatic function.
The objective was to assess the effect of hepatic impairment on the PK of tizoxanide (TZ; NTZ active metabolite), following repeated oral dose administration of NTZ 500 mg BID for 7 days in subjects with moderate or severe hepatic impairment and subjects with normal hepatic function.
The following parameters used to measure the hepatic function were considered for the evaluation of the degree of hepatic impairment on NTZ PK: Child-Pugh (CP) score (*), serum albumin, serum total bilirubin, international normalized ratio (INR), aspartate aminotransferase (AST), alanine aminotransferase (ALT).
(*) For the control match healthy subject group, CP score was not calculated, and the analysis was limited to hepatic impaired patients.
Subjects were enrolled within the following groups based on their CP score at Screening: • Group 1: Normal hepatic function • Group 2: Moderate hepatic impairment (CP Class B) • Group 3: Severe hepatic impairment (CP Class C)
On Day 1, the study subjects took 500 mg NTZ (1 tablet) with 240 mL (8 fluid ounces) of water 30 minutes after the start of the standardized breakfast. No food was allowed for at least 4 h after each dose. Blood PK samples were taken at the following timepoints: pre-dose (completed in fasted state prior to the start of the standardized breakfast), T1h, T2h, T3h, T4h, T5h, T6h, T7h, T8h, T10h and T12h post-dose.
From Day 2 to Day 6, subjects received 500 mg of nitazoxanide (1 tablet) in the morning and in the evening for 6 consecutive days and on Day 7 the last dose was administered in the morning. Pre-dose blood PK sample was collected in fasted state prior to the start of the standardized breakfast each morning from Day 2 to Day 6.
On Day 7, blood PK samples were taken at the following timepoints: Pre-dose (completed in fasted state prior to the start of the standardized breakfast), T1h, T2h, T3h, T4h, T5h, T6h, T7h, T8h, T10h, T12h, T14h and T16h post-dose. PK samples at T18h, T24h and T48h post dose were taken respectively on D8 and D9.
The primary analysis was to assess the difference in the PK parameters (Cmax, AUC0-12 and AUC0-t) of total TZ after repeated oral administration of NTZ 500 mg BID for 7 days in subjects with moderate or severe hepatic impairment and subjects with normal hepatic function.
The secondary analysis was to determine the accumulation ratios on AUC0-12 and Cmax measured after a single (Day 1) and a 7-day repeated (BID) oral administrations.
The relationship between hepatic function markers (serum albumin, serum total bilirubin, INR, AST and ALT (obtained at screening)) and PK parameters (Cmax and AUC0-12) for TZ and TZ Glu (total and unbound) were investigated and evaluated using graphical and correlation techniques.
Both Pearson (supporting a linear trend) and Spearman correlation (supporting a monotonic trend) coefficients were calculated. The correlation coefficients (p) were used to measure appropriately the association for most possible relationship and only strong correlations (i.e. p≥0.75) would support further modeling.

[2] = tested on: BDL+LPS-induced liver impairment rat model; experiment: Evaluation of NTZ efficacy on BDL+LPS-induced liver impairment in rats; format: in vivo, Sprague Dawley rats
Description: The objective of the study was to assess the efficacy of NTZ to prevent LPS-induced inflammation, hepatic dysfunction and brain edema in fibrotic rats that underwent BDL surgery. BDL surgery was performed on 30 Sprague Dawley rats (Janvier). After anesthesia, a median laparotomy was performed to expose the liver and duodenum. The main bile duct was identified and dissected. After that, the bile duct was ligated in two parts: a first ligation was made in the middle of the bile duct, and the second ligation was made above the entrance of the pancreatic duct. The bile duct was then cut in the middle, to avoid recanalization. Fourteen days after surgery, a blood sample was collected from the sublingual vein to measure markers of hepatic injury (serum aspartate aminotransferase (AST), total bile acids and bilirubin) to stratify the animals into treatment groups. […] Two unoperated animals were included in the study as healthy controls. […] Nine rats with BDL received phosphate buffer saline (PBS, Fisher Scientific, USA) instead of LPS to be used as BDL controls. The body weight and food intake were monitored twice a week all along the study. During the fibrosis induction phase, each animal was observed once a day for the monitoring of clinical signs. Observations include changes in the skin, fur, eyes, occurrence of secretions and excretions and autonomic activity (lachrymation, piloerection, unusual respiratory pattern). Changes in gait, posture, stereotypes (e.g. excessive grooming, repetitive circling) or bizarre behavior (self-mutilation, walking backward) are also monitored. Animals were euthanized in case of weight loss of more than 25% for more than 3 consecutive days, absence of food consumption, deterioration of the general condition or vocalization. After LPS administration, each animal was continuously observed (appearance of the animal-change in fur, skin color, the degree of activity, vigilance-response to a stimulus, opening of the eyelids, activity, gait and behaviour) during 7 hours in order to assess the degree of severity of the inflammatory response and pain. Treatment with NTZ 100 mg/kg or vehicle (1% carboxymethylcellulose ([…], Sigma-Aldrich), 0.1% tween 80 ([…], Sigma-Aldrich)) was administered by gavage 1 hour before LPS injection. For oral gavage, NTZ powder was dissolved in CMC 1%, Tween 80 0.1% at the concentration of 10 mg/ml in an amber glass bottle, homogenized with a polytron and sonicated 10 seconds at a power of 10%. NTZ was kept under magnetic stirring until the administration to the rats at 10 ml/kg. LPS solution was prepared under a microbiological safety cabinet, in order to have a sterile solution to inject to rats. The LPS solution was dissolved in phosphate buffer saline (PBS) at 0.5 μg/ml, aliquoted and frozen until the day of experiment. LPS was administered at 2 ml/kg to the rats. All surviving animals were euthanized 3 h after LPS injection for plasma and tissues analyses. At the end of the study, by plasma level of hepatic function markers and cytokines, and brain edema have been evaluated.

[3] = total TZ, all groups combined, listed as Total TZ
[4] = total TZ, Moderate (CP B) vs Control
[5] = total TZ, Severe (CP C) vs Control
[6] = NTZ 100 mg/kg by gavage 1 hour before LPS, blood collected 3 hours after LPS

For O=C(Nc1ncc([N+](=O)[O-])s1)c1ccccc1O [TZ, tizoxanide], the “fraction of the dose recovered in urine over 12 h” value ([1]; Day 1 and Day 7, regardless of the group) was “less than 1%”, the Tmax ([1]; both, human, blood, oral, 500 mg) was 3.5 to 5 h and the AUC(0-t) ([1]; both, human, blood, oral, 500 mg, AUC0-12 GM, total TZ, all groups combined (Total), DAY 1, single 500 mg NTZ dose) was 115 µM·h. It also gave an AUC(0-t) ([1]; both, human, blood, oral, 500 mg, AUC0-12 GM, total TZ, all groups combined (Total), DAY 7, NTZ 500 mg BID) of 183 µM·h, an AUC(0-t) ([1]; both, human, blood, oral, 500 mg, AUC0-12 GM, total TZ, steady state after NTZ 500 mg BID 7 days, Moderate (CP B)) of 145 µM·h and an AUC(0-t) ([1]; both, human, blood, oral, 500 mg, AUC0-12 GM, total TZ, steady state after NTZ 500 mg BID 7 days, Severe (CP C)) of 264 µM·h. For the same compound, the AUC(0-t) ([1]; both, human, blood, oral, 500 mg, AUC0-t GM, total TZ, steady state after NTZ 500 mg BID 7 days, Control group (normal hepatic function)) was 165 µM·h, the AUC(0-t) ([1]; both, human, blood, oral, 500 mg, AUC0-t GM, total TZ, steady state after NTZ 500 mg BID 7 days, Moderate (CP B)) was 150 µM·h and the AUC(0-t) ([1]; both, human, blood, oral, 500 mg, AUC0-t GM, total TZ, steady state after NTZ 500 mg BID 7 days, Severe (CP C)) was 297 µM·h. For the same compound, the Cmax ([1]; both, human, blood, oral, 500 mg, total TZ, all groups combined (Total), DAY 1, single 500 mg NTZ dose) was 24.8 µM, the Cmax ([1]; both, human, blood, oral, 500 mg, total TZ, all groups combined (Total), DAY 7, NTZ 500 mg BID) was 34.7 µM and the Cmax ([1]; both, human, blood, oral, 500 mg, total TZ, steady state after NTZ 500 mg BID 7 days, Control group (normal hepatic function)) was 35.3 µM. The Cmax ([1]; both, human, blood, oral, 500 mg, total TZ, steady state after NTZ 500 mg BID 7 days, Moderate (CP B)) was 28.2 µM, the Cmax ([1]; both, human, blood, oral, 500 mg, total TZ, steady state after NTZ 500 mg BID 7 days, Severe (CP C)) was 42 µM and the half-life ([1]; both, human, blood, oral, 500 mg, GM t1/2, Day 1) was roughly 2 h. The half-life ([1]; both, human, blood, oral, 500 mg, GM t1/2, Day 7, severe impairment group) was 4 h, the AUC(0-t) ([1]; both, human, in vivo, oral, 500 mg, AUC0-12 GM, total TZ, steady state after NTZ 500 mg BID 7 days, Control group (normal hepatic function)) was 162 µM·h and the CL renal ([1]; both, human, urine, oral, 500 mg) was 0.0333 to 0.5 mL/min. The “AUC0-12 accumulation GM Ratio (Day 7/Day 1)” value [1, 3] was 1.5980, the “Cmax accumulation GM Ratio (Day 7/Day 1)” value [1, 3] was 1.3993 and the “Cmax accumulation GM Ratio (Day 7/Day 1)” value ([1]; total TZ, all groups combined, listed as total TZ) was “around 1.4”. The “AUC0-12 GM Ratio (Impaired/Control)” value [1, 4] was 0.8960, the “AUC0-t GM Ratio (Impaired/Control)” value [1, 4] was 0.9064 and the “Cmax GM Ratio (Impaired/Control)” value [1, 4] was 0.8008. The “AUC0-12 GM Ratio (Impaired/Control)” value [1, 5] was 1.6353, the “AUC0-t GM Ratio (Impaired/Control)” value [1, 5] was 1.7940 and the “Cmax GM Ratio (Impaired/Control)” value ([1]; total TZ, Severe (CP C) vs Control, listed as Total TZ) was 1.1921. The “Cmax GM Ratio (Impaired/Control)” value ([1]; total TZ, Severe (CP C) vs Control, listed as total TZ) was 1.19, the “correlation coefficient AUC0-12 vs ALT” value ([1]; total analyte) was “P (LS): −0.07” and the “correlation coefficient AUC0-12 vs AST” value ([1]; total analyte) was “P (NS): 0.17”. For the same compound, the “correlation coefficient AUC0-12 vs Albumin” value ([1]; total analyte) was “P (NS): −0.4”, the “correlation coefficient AUC0-12 vs Bilirubin” value ([1]; total analyte) was “P (NS): 0.43” and the “correlation coefficient AUC0-12 vs INR” value ([1]; total analyte) was “P (NS): 0.46”. The “correlation coefficient Cmax vs ALT” value ([1]; total analyte) was “P (LS): −0.17”, the “correlation coefficient Cmax vs AST” value ([1]; total analyte) was “P (LS): −0.05” and the “correlation coefficient Cmax vs Albumin” value ([1]; total analyte) was “P (NS): −0.25”. For the same compound, the “correlation coefficient Cmax vs Bilirubin” value ([1]; total analyte) was “P (NS): 0.47”, the “correlation coefficient Cmax vs INR” value ([1]; total analyte) was “P (NS): 0.46” and the “correlation coefficient AUC0-12 vs ALT” value ([1]; unbound (u-) analyte) was “P (LS): −0.06”. For the same compound, the “correlation coefficient AUC0-12 vs AST” value ([1]; unbound (u-) analyte) was “P (NS): 0.15”, the “correlation coefficient AUC0-12 vs Albumin” value ([1]; unbound (u-) analyte) was “P (NS): −0.37” and the “correlation coefficient AUC0-12 vs Bilirubin” value ([1]; unbound (u-) analyte) was “P (NS): 0.47”. For the same compound, the “correlation coefficient AUC0-12 vs INR” value ([1]; unbound (u-) analyte) was “P (NS): 0.5”, the “correlation coefficient Cmax vs ALT” value ([1]; unbound (u-) analyte) was “P (LS): −0.15” and the “correlation coefficient Cmax vs AST” value ([1]; unbound (u-) analyte) was “S (NS): −0.09”. For the same compound, the “correlation coefficient Cmax vs Albumin” value ([1]; unbound (u-) analyte) was “P (NS): −0.24”, the “correlation coefficient Cmax vs INR” value ([1]; unbound (u-) analyte) was “P (NS): 0.49” and the “correlation coefficient Cmax vs Bilirubin” value ([1]; unbound (u-) analyte, listed as u-Tizoxanide) was “P (NS): 0.51”. For the same compound, the “correlation coefficient Cmax vs Bilirubin” value ([1]; unbound (u-) analyte, listed as unbound TZ) was 0.51.

For CC(=O)Oc1ccccc1C(=O)Nc1ncc([N+](=O)[O-])s1 [NTZ, nitazoxanide], the “safety in patients with hepatic impairment” value ([1]; NTZ 500 mg BID for 7 days) was “safe”, the “brain edema: change of brain water content compared to the BDL condition” value ([2]; NTZ 100 mg/kg by gavage 1 hour before LPS, 3 h after LPS, p=0.006) was −111% and the “decrease of circulating IL-1β” value [2, 6] was 91%. For the same compound, the “decrease of circulating IL-6” value [2, 6] was 93%, the “decrease of circulating TNFα” value [2, 6] was 94% and the “percentage of liver fibrosis” value ([2]; NTZ 100 mg/kg by gavage 1 hour before LPS, euthanized 3 h after LPS, data not shown) was “Neither LPS nor NTZ treatment affected the percentage of liver fibrosis”. The “LPS-induced alteration of plasma total bile acids, total bilirubin, albumin and GGT” value ([2]; NTZ 100 mg/kg by gavage 1 hour before LPS, plasma 3 h after LPS) was “tended to reduce the LPS-induced alteration of these markers”, the “reduction of plasma urea (LPS-induced renal impairment)” value ([2]; NTZ 100 mg/kg by gavage 1 hour before LPS, plasma 3 h after LPS, p=0.007) was 84% and the “reduction of plasma ASAT compared to the ACLF-Veh condition” value ([2]; NTZ 100 mg/kg by gavage 1 hour before LPS, plasma 3 h after LPS, p=0.01) was 100%. For the same compound, the “reduction of plasma ALAT compared to the ACLF-Veh condition” value ([2]; NTZ 100 mg/kg by gavage 1 hour before LPS, plasma 3 h after LPS, p=0.03) was 101%, the “LPS-induced rise in ALT, change with NTZ” value ([2]; NTZ 100 mg/kg, conclusions) was −101% and the “LPS-induced rise in AST, change with NTZ” value ([2]; NTZ 100 mg/kg, conclusions) was −100%. For the same compound, the “LPS-induced rise in urea, change with NTZ” value ([2]; NTZ 100 mg/kg, conclusions) was −84% and the “brain edema: water content (in words)” value ([2]; NTZ 100 mg/kg, conclusions) was “totally restored the water content to the level of BDL and healthy rats”.
